Patent US6504005B1, “Long-acting drugs and pharmaceutical compositions comprising them” (Yeda Research and Development Co. Ltd., priority 1996, dated 2003)
“And” between values parts separate entries of the source, which are not always exact repeats. Equal entries are not always repeated. Where two headings read alike, the source gives them in different places.

Legend:
intact rat adipocytes = assay type: cell-based; conditions: for Activity following incubation at pH 8.5, 37° C. (%), 9 hrs: 9 hrs at pH 8.5, 37° C.; for Activity following incubation at pH 8.5, 37° C. (%), 20 hrs: 20 hrs at pH 8.5, 37° C.; for Activity following incubation at pH 8.5, 37° C. (%), 45 hrs: 45 hrs at pH 8.5, 37° C.
Method: (iii) Lipogenesis (Incorporation of Labeled Glucose into the Lipids of Intact Adipocytes) Rat adipocytes were prepared essentially by the method of Rodbell, 1964. The fat pads of male Wistar rats were cut into small pieces with scissors and suspended in 3 ml of KRB buffer containing NaCl, 110 mM; NaHCO3, 25 mM; Kcl, 5 mM; […] CaCl2, 1.3 mM; […] Five milliliters of buffer was then added, and the cells were passed through a mesh screen. The cells were then allowed to stand for several minutes in a 15 ml plastic test tube at room temperature, floating, and the buffer underneath was removed. This procedure (suspension, floating, and removal of buffer underneath) was repeated three times. […] Lipogenesis was terminated by adding toluene-based scintillation fluid (1.0 ml per vial) and the radioactivity in extracted lipids was counted (Moody et al., 1974).

[1] = Solubility and appearance in aqueous buffer (pH 7.4)
[2] = molecular target: insulin receptor tyrosine kinase (Rattus norvegicus, UniProt P15127); test: Insulin receptor tyrosine kinase activity, [poly(Glu4Tyr)] phosphorylating assay (cell-free); conditions: for Biological potency following incubation (2 days, 37° C., pH 8.5): after 2 days; for Biological potency (%): of native insulin potency, before incubation, [poly(Glu4Tyr)] phosphorylating assay
Sequence of insulin receptor tyrosine kinase (P15127 27-759 limits assumed): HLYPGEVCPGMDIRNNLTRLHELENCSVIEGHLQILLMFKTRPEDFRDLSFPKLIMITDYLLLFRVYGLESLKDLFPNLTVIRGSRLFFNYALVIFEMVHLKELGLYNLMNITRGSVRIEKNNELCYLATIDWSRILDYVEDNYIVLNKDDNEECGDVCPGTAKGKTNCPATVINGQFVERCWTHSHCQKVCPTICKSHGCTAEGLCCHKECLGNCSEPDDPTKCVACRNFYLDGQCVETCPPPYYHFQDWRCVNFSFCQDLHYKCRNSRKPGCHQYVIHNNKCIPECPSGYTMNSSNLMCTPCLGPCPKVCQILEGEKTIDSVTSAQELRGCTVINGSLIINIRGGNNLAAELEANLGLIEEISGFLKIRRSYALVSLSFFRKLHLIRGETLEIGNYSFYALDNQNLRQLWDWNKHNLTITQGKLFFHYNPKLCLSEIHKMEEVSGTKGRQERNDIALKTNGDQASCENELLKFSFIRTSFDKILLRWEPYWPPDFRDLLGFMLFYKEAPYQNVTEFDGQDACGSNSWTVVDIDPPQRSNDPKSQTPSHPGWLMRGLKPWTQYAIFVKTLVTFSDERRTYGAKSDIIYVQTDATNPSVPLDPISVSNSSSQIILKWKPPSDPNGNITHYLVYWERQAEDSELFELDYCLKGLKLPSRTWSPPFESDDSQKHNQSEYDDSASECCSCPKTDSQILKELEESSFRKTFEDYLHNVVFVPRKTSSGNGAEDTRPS
Sequence of insulin receptor tyrosine kinase (P15127 764-1383 partner limits assumed): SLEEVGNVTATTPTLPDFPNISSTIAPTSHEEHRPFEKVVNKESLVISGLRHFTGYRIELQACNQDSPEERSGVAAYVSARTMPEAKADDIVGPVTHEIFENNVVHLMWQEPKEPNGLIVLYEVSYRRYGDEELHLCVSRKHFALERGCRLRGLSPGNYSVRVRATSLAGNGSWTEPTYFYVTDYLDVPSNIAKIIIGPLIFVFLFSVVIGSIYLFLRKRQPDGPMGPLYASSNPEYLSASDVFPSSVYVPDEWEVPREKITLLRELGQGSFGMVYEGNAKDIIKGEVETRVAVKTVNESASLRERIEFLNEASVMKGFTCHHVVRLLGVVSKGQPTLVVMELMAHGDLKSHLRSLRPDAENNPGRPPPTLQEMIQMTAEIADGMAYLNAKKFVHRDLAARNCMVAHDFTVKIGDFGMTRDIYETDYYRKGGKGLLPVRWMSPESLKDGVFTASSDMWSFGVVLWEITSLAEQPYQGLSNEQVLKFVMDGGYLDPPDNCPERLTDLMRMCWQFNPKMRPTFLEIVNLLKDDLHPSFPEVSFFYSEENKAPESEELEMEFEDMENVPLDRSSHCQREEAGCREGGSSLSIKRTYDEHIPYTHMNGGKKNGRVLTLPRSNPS
Method: Briefly, the liver was homogenized in the presence of proteinase inhibitors, solubilized with 1% Triton X-100, and centrifuged. The supernatant was allowed to pass through a wheat-germ agglutinin (WGA)-agarose column (Sigma). Adsorbed insulin receptor portion was eluted with 0.3M N-acetyl-D-glucose amine in 50 mM HEPES buffer, pH 7.4, containing 0.1% Triton X-100, 10% glycerol, and 0.15M NaCl.
(iv) Receptor Tyrosine Kinase Activity Measurement
In this assay insulin activates its own receptor to phosphorylate a random copolymer containing L-glutamic acid and L-tyrosine at 4:1 molar ratio [Poly(Glu4Tyr)]SEQ ID NO:1. The standard enzyme assay mixture (final volume 60 μl in 50 mM Hepes, pH 7.4-0.1% Triton X-100) contained WGA purified insulin receptor (5μg protein), 20 mM MgCl2, 2 mM MnCl2, 100 μM ATP and varying concentrations (from 1 ng/ml to 10 mg/ml) of insulin or insulin derivative. Following a 30 min preincubation at 22° C., the reaction was initiated by adding Poly(Glu4Tyr) SEQ ID NO:1 (final concentration 0.7 mg/ml), it proceeded for 20 min at 22° C. and was terminated by adding EDTA (20 mM). Phosphotyrosine content in PolyGlu4Tyr was quantitated by a radio-immunoassay procedure using specific monoclonal antibodies to phosphotyrosine (final dilution 1: 100,000) and ^125I-BSA-phosphotyrosine conjugate.

[3] = cited from earlier work
E. coli = assay type: cell-based; conditions: for IC50: read-out: Concentration inhibiting 50% of bacterial growth; for Antimicrobial potency (%): relative to PMXB control
Method: At the indicated time points aliquots were withdrawn and analyzed for their potencies to arrest growth of E. coli, and bacterial growth was then evaluated by measuring turbidity at 700 nm.

normal rats = test: Single intraperitoneal administration to normal rats, blood glucose levels; assay type: in vivo; conditions: single i.p. injection, 3 mg/rat
Method: This assay reflects the post-subcutaneous long-acting feature of insulin (or insulin derivatives) within the circulation. Normal rats received a single intraperitoneal injection of native insulin, NPH-insulin and (Fmoc)2-insulin (3 mg/rat), and their blood glucose levels were monitored over a period of three days.
Blood glucose levels were followed for two days.

[4] = not given; remark: listed apart in the source
Staphylococcus aureus = conditions: relative to cephalexin control
Method: At the indicated time points, aliquots were withdrawn and analyzed for their potency to arrest growth of Staphylococcus aureus. Bacterial growth was then evaluated by increased turbidity measured spectroscopically at 700 nm.

hGH receptor = test: Displacement of iodinated hGH (receptor binding assay)
Method: Incubation of Fmoc-hGH at pH 8.5 (37° C.) for about 6 days or at pH 10.5 (37° C.) for four days yielded fully active, native hGH, as judged by HPLC analysis and by receptor binding assays.

[5] = Conversion of Fmoc-hGH to native hGH upon incubation (analytical HPLC); assay type: physicochemical; conditions: pH 8.5, 37° C.
Method: Conversion of Fmoc-hGH to native hGH was evaluated by the increase in peak area corresponding to native hGH.

[6] = assay type: physicochemical
Method: (i.e. at physiological pH and body temperature). At the indicated time points aliquots were withdrawn for determining the biological potency relative to native insulin. Biological activities were evaluated by Insulin receptor tyrosine kinase activation (a cell free assay as described in Biological Procedures above, section (iv)) and by stimulation of lipogenesis in intact rat adipocytes as described in Biological Procedures, […].

chymotrypsin and trypsin = conditions: pH 7.4
Method: Chymotrypsin and trypsin (0.5% w/w, of each) was then added. At the indicated time points aliquots were withdrawn and subjected to analytical HPLC procedure.

STZ-diabetic rats = test: Single subcutaneous administration to STZ-diabetic rats (blood glucose, daily weight gain)
Method: Diabetes was induced by a single intravenous injection of a freshly prepared solution of streptozotocin (55 mg/kg body weight) in 0.1M citrate buffer (pH 4.5) according to Meyerovitch et al., 1987.
Blood glucose levels and daily weight gains were followed over a period of seven days.
Group C (n=5) received the vehicle only (2.0 ml of 20% DMSO). Blood glucose levels were determined daily.

Gly^A1, Lys^B29-N-(Fmoc)2-insulin
Activity following incubation at pH 8.5, 37° C. (%), 9 hrs (intact rat adipocytes): 10% | Activity following incubation at pH 8.5, 37° C. (%), 20 hrs (intact rat adipocytes): 20% | Activity following incubation at pH 8.5, 37° C. (%), 45 hrs (intact rat adipocytes): 97% | Solubility in aqueous buffer (pH 7.4, mg/ml): ˜2 mg/ml | Appearance in aqueous buffer (pH 7.4) [1]: cloudy | Biological potency following incubation (2 days, 37° C., pH 8.5) [2]: 93 | Biological potency (%) [2]: 2 ± 1%

Insulin lispro: human insulin analog with the sequence at B28 and B29 reversed
Potency versus human insulin ([3]; in vivo): equipotent to human insulin | Absorption from subcutaneous injection sites ([3]; versus human insulin): absorbed more quickly

Gly^A1, Phe^B1-N-(Fmoc)2-insulin
Activity following incubation at pH 8.5, 37° C. (%), 9 hrs (intact rat adipocytes): 18% | Activity following incubation at pH 8.5, 37° C. (%), 20 hrs (intact rat adipocytes): 40% | Activity following incubation at pH 8.5, 37° C. (%), 45 hrs (intact rat adipocytes): 100% | Solubility in aqueous buffer (pH 7.4, mg/ml): ˜2 mg/ml | Appearance in aqueous buffer (pH 7.4) [1]: cloudy | Biological potency following incubation (2 days, 37° C., pH 8.5) [2]: 97 | Biological potency (%) [2]: 3 ± 1%

di-9-(fluorenylmethoxycarbonyl)polymyxin B [(Fmoc)2-PMBX]
IC50 (E. coli; 3 d, 37° C., pH 7.4): 227 nM and 350 nM | IC50 (E. coli; 3 d, 37° C., pH 8.5): 125 nM | Antimicrobial potency (%) (E. coli; 3 d, 37° C., pH 8.5): 80% | IC50 (E. coli; 6 d, 37° C., pH 8.5): 200 nM | Antimicrobial potency (%) (E. coli; 6 d, 37° C., pH 8.5): 100% | t½ of hydrolysis back to active PMXB, pH 7.4 (E. coli; buffer, pH 7.4): ~1 days | t½ of hydrolysis back to active PMXB, pH 8.5 (E. coli; buffer, pH 8.5): ~3 days | IC50 (E. coli; no treatment): 5000 nM | Antimicrobial potency (%) (E. coli; no treatment): ~1%

(Sulfmoc)2-insulin: insulin carrying two (2-sulfo)Fmoc groups on amino groups, water soluble
Biologically active (%) (intact rat adipocytes; before incubation, assay not given): 0.5% | t½ of return to fully-active native insulin (increase in biological potency) (intact rat adipocytes; pH 8.5): 4-6 hours | Period of hypoglycemia / reduced blood glucose (normal rats): 24 h | Recovery from hypoglycemia, t½ (normal rats): 14 h | Time to full reversion / hydrolysis to the native hormone, pH 7.4 ([4]; 37° C., pH 7.4): 10 days | t½ of reversion, pH 7.4 ([4]; buffer, pH 7.4): 6 days | t½ of reversion, pH 8.5 ([4]; buffer, pH 8.5): 12-15 hours | Increase in rate of hydrolysis versus Fmoc moiety ([4]; sulfonic acid group at position 2): 2-3 fold

CC1=C(C(=O)O)N2C(=O)[C@@H](NC(=O)[C@H](N)c3ccccc3)[C@H]2SC1 [native cephalexin, 7-(D-α-aminophenylacetamido)desacetoxycephalosporanic acid, reference compound]
Antimicrobial potency (%) (Staphylococcus aureus; after 1 day at pH 7.4, 37° C.): 100% | Antimicrobial potency (%) (Staphylococcus aureus; after 3 days at pH 7.4, 37° C.): 100% | Antimicrobial potency (%) (Staphylococcus aureus; after 6 days at pH 7.4, 37° C.): 100% | Antimicrobial potency (%) (Staphylococcus aureus; no incubation): 100%

Fmoc-hGH: human growth hormone modified with Fmoc-OSu
Ability to displace iodinated hormone (%) (hGH receptor; after 1 day, pH 10.5, 37° C.): 25% | Ability to displace iodinated hormone (%) (hGH receptor; after 4 days, pH 10.5, 37° C.): 100% | Ability to displace iodinated hormone (%) (hGH receptor; no treatment): 15% | Incubation time yielding fully active, native hGH, pH 10.5 (hGH receptor; pH 10.5, 37° C.): four days | Conversion to hGH (%) ([5]; 1 day): 23% | Conversion to hGH (%) ([5]; 2 days): 62% | Conversion to hGH (%) ([5]; 6 days): 100% | Incubation time yielding fully active, native hGH, pH 8.5 [5]: about 6 days

Lys^B29-N-(Fmoc)1-insulin
t½ of activation (half maximal activation) ([6]; buffer, pH 7.4): 120 h | Solubility in aqueous buffer (pH 7.4, mg/ml): ˜3 mg/ml | Appearance in aqueous buffer (pH 7.4) [1]: nearly clear | Biological potency following incubation (2 days, 37° C., pH 8.5) [2]: 94 | Biological potency (%) [2]: 78 ± 4%

Phe^B1-N-(Fmoc)1-insulin
Solubility in aqueous buffer (pH 7.4, mg/ml): ˜3 mg/ml | Appearance in aqueous buffer (pH 7.4) [1]: nearly clear | Biological potency (%) [2]: 76 ± 4%

Gly^A1, Phe^B1, Lys^B29-N-(Fmoc)3-insulin
Lag period of activation ([6]; pH 7.4, 37° C.): six day lag period | Solubility in aqueous buffer (pH 7.4, mg/ml): ˜0.2 mg/ml | Resistance to proteolysis (chymotrypsin and trypsin): highly resistant to proteolysis | Appearance in aqueous buffer (pH 7.4) [1]: very cloudy | Delayed onset of antidiabetic action (STZ-diabetic rats; STZ rats, single s.c. 1 mg): approximately two days | Duration of antidiabetic action (STZ-diabetic rats; STZ rats, single s.c. 1 mg): four days | Daily weight gain (STZ-diabetic rats; STZ rats, single s.c. 1 mg, followed seven days): 1.43±0.14 g/rat/day | Circulating glucose level lower than in native insulin group (STZ-diabetic rats; single s.c. 1 mg, day two up to day six): 90 to 110 mg/dL | Biological potency (%) ([2]; listed as N-(Fmoc)3-insulin Gly^A1, Lys^B29, Phe^B1): <1% | Biological potency (%) ([2]; listed as tri-N-Fmoc-insulin): < 1%

Phe^B1, Lys^B29-N-(Fmoc)2-insulin
Activity following incubation at pH 8.5, 37° C. (%), 9 hrs (intact rat adipocytes): 10% | Activity following incubation at pH 8.5, 37° C. (%), 20 hrs (intact rat adipocytes): 20% | Activity following incubation at pH 8.5, 37° C. (%), 45 hrs (intact rat adipocytes): 98% | Lag period of activation ([6]; pH 7.4, 37° C.): not seen | Start of conversion to the native hormone after incubation ([6]; pH 7.4, 37° C.): starts shortly (within hours) after incubation | Period of hypoglycemia / reduced blood glucose (normal rats): about 48 hours | Recovery from hypoglycemia, t½ (normal rats): 26 h | Solubility in aqueous buffer (pH 7.4, mg/ml): ˜2 mg/ml | Appearance in aqueous buffer (pH 7.4) [1]: cloudy | Period of normoglycemia (STZ-diabetic rats; STZ rats, single s.c. 3 mg/rat): 4 days | Daily weight gain gram/rat (over the first three days) (STZ-diabetic rats; STZ rats, single s.c. 3 mg/rat, first three days): 11.5 ± 1.3 gram/rat | Effectiveness in lowering blood glucose levels (STZ-diabetic rats; STZ rats, single s.c. administration): as effective as the commercially available (insoluble) long-acting preparation | Biological potency (%) ([2]; Lys^B29-N-(Fmoc)2 insulin): 9% | Biological potency (%) ([2]; listed as N-(Fmoc)2-insulin Phe^B1, Lys^B29): 9 ± 2%

hGH: native human growth hormone (Biotechnology General)
Ability to displace iodinated hormone (%) (hGH receptor; no treatment): 100% | Stability under the conditions applied to Fmoc-hGH (hGH receptor; pH 10.5, 37° C., 4 days): ^(1)Displacement of iodinated hGH was carried out according to Gertler et al., 1984. Native hGH was fully stable under the conditions applied to Fmoc-hGH (pH 10.5, 37° C., 4 days).

Gly^A1-N-(Fmoc)1-insulin [Gly^A1-N-Fmoc-insulin]
Activity following incubation at pH 8.5, 37° C. (%), 9 hrs (intact rat adipocytes): 50% | Activity following incubation at pH 8.5, 37° C. (%), 20 hrs (intact rat adipocytes): 100% | Solubility in aqueous buffer (pH 7.4, mg/ml): ˜3 mg/ml | Appearance in aqueous buffer (pH 7.4) [1]: nearly clear | Biological potency (%) [2]: 40 ± 2%

Polymyxin-B [native PMXB, reference compound]
IC50 (E. coli; 3 d, 37° C., pH 7.4): 55 nM | Antimicrobial potency (%) (E. coli; 3 d, 37° C., pH 7.4): 100% | IC50 (E. coli; 3 d, 37° C., pH 8.5): 100 nM | Antimicrobial potency (%) (E. coli; 3 d, 37° C., pH 8.5): 100% | IC50 (E. coli; 6 d, 37° C., pH 7.4): 228 nM | Antimicrobial potency (%) (E. coli; 6 d, 37° C., pH 7.4): 100% | IC50 (E. coli; 6 d, 37° C., pH 8.5): 200 nM | Antimicrobial potency (%) (E. coli; 6 d, 37° C., pH 8.5): 100% | IC50 (E. coli; no treatment): 50 nM | Antimicrobial potency (%) (E. coli; no treatment): 100%
